Measured values from patent US12318503B2, “Functional amyloid hydrogels and applications thereof” (Indian Institute of Technology Bombay, priority 2019, dated 2025).
Where a SMILES comes first, the peptide text is derived from it. The star is where a group is joined. Fmoc = O=C(OCC1c2ccccc2-c2ccccc21)*

What was measured:
MCF7 spheroids [1] = assay: MTT cytotoxicity of chemotherapeutic drugs on spheroids versus 2D culture; type: cell-based; settings: 0-14 μM, 24 h
Method: Cytotoxicity assays by MIT: MCF7 spheroids were cultured for five days in DMEM (Dulbecco's modified Eagle's medium) with 10% FBS, in a 5% CO2 incubator at 37° C. followed by treatment with different chemotherapeutics drugs (0-14 μM) for 24 h. For control, media containing buffer. After 24 h of incubation, 10 μl of MTT solution (5 mg/ml prepared in PBS) was added to each well and incubated for 4 h. Subsequently, 100 μl of SDS-DMF solution (50% DMF and 20% SDS, pH 4.75) were added and kept for overnight incubation. The absorption values at 560 nm and 690 nm (background absorbance) were determined using a SpectraMax M2e microplate reader (Molecular Devices, USA). The cell viability was plotted as percentage cell viability by considering 100% viability for the buffer control (FIG. 18 A).
Dense spheroids tended to show relative resistance to all these five chemotherapeutic drugs in the 3D-culture as compared to this resistance in 2D. […] These findings confirm that the formation of dense spheroids in 3D-culture plays a role in determining the sensitivity of the cell lines to these chemotherapeutic drugs. […] 3D, geometrical difference can have far-reaching impacts in terms of understanding physiological response.

MDA-MB-231 cells = assay: Efficacy of DOX released from hydrogels (MTT, Annexin-PI FACS); type: cell-based
Method: MDA-MB-231, breast cancer cell line was used for determining the efficacy of DOX release. To do so, MDA-MB-231 cells were grown on the DOX encapsulated hydrogels at a density of 2×10000 and cultured in complete DMEM media for 24 hrs. After 24 hrs, the cell morphology was imaged and the viability was then quantified using 3-(4,5-dimethylthiazol-2-yl)-2,5-diphenyl tetrazolium bromide (MTT) assay. FIG. 22A phase contrast images of MDA-MB-231 cells treated with DOX encapsulated hydrogels. […] For FACS analysis, MDAMB-231 cells were seeded on the hydrogel in the density 50,000 cells/well and allowed to grow for 24 hrs. Following the incubation, the cells were trypsinized and harvested in an eppendorf. The cell pellet was obtained by centrifugation and was resuspended in binding buffer. The percentage of apoptotic cells were measured by Annexin-PI staining method. 2 μl each of Annexin and PI was added to the resuspended cells and incubated for 5 mins before acquiring the results using FACS. […] To determine the efficacy of RA released from the hydrogel, SH-SY5Y neuroblastoma cells were seeded on hydrogel encapsulated with and without RA at a density of 1×10^4 and cultured in complete DMEM media. […] After 48 hrs, the morphology of these cells was analyzed by phase contrast images (FIG. 23A) and the cell shape was quantified by circularity using Image J software (FIG. 23C).

[2] = MTT cytotoxicity assay of cells cultured on the hydrogels; type: cell-based; settings: human, hydrogel 5 mg/ml peptide, 24 hours culture, read-out: cell viability
Method: To determine whether the functional amyloid hydrogel is non-toxic in nature, MTT (3-[4,5-dimethylthiazol-2-yl]-2,5 diphenyl tetrazolium bromide) assay was performed. The amyloid hydrogels were casted at a concentration of 5 mg/ml for each peptide and neuroblastoma, SH-SY5Y cells at a density of 10^4 were seeded and cultured on the hydrogels for 24 hours. The MTT reagent (0.5 mg/ml final concentration) was added to the cells after 24 hrs of culture and the cells were further incubated for 4 h. Finally, 100 μl of 50% N, N-dimethylformamide/20% sodium dodecyl sulfate solution was added, and the mixture was incubated overnight. The absorption was then measured at 560 nm with an automatic microtiter plate reader (Thermo Fisher Scientific, Waltham, MA, USA). FIG. 9 depicts the percentage of cell viability.

SH-SY5Y cells = assay: Differentiation of cells on RA encapsulated hydrogels; type: cell-based; settings: RA released from RA encapsulated hydrogels
Method: MDA-MB-231, breast cancer cell line was used for determining the efficacy of DOX release. To do so, MDA-MB-231 cells were grown on the DOX encapsulated hydrogels at a density of 2×10000 and cultured in complete DMEM media for 24 hrs. After 24 hrs, the cell morphology was imaged and the viability was then quantified using 3-(4,5-dimethylthiazol-2-yl)-2,5-diphenyl tetrazolium bromide (MTT) assay. FIG. 22A phase contrast images of MDA-MB-231 cells treated with DOX encapsulated hydrogels. […] For FACS analysis, MDAMB-231 cells were seeded on the hydrogel in the density 50,000 cells/well and allowed to grow for 24 hrs. Following the incubation, the cells were trypsinized and harvested in an eppendorf. The cell pellet was obtained by centrifugation and was resuspended in binding buffer. The percentage of apoptotic cells were measured by Annexin-PI staining method. 2 μl each of Annexin and PI was added to the resuspended cells and incubated for 5 mins before acquiring the results using FACS. […] After 48 hrs, the morphology of these cells was analyzed by phase contrast images (FIG. 23A) and the cell shape was quantified by circularity using Image J software (FIG. 23C).
The SH-SY5Y cells grown on hydrogel were immunostained with β-III tubulin (β-IIIT), a neuron specific marker to determine the efficacy of the released RA (FIG. 23B). […] The gene expression was analyzed by Real-time PCR technique.

MCF7 spheroids [3] = assay: Fluorescence live/dead study of drug effect on 2D versus 3D; type: cell-based; settings: 24 h
Method: Fluorescence study was also performed to observe the effect of drug on 2D versus 3D. Here, after maturation of spheroids i.e., 5 days of culture on gel 4, different dose of paclitaxel (2-10 μM) was added for 24 h. To assess the effect of drug, cell viability was observed by staining through calcein AM and ethidium homodimer-1. Images were captured after incubation with dyes for 1 h. […] On the other hand, at the concentration of 4 μM, 70% of the cells for 2D are dead for the drug paclitaxel (FIG. 18 B).

[4] = tested on: STZ-induced diabetic rat model; assay: Insulin delivery from hydrogels in diabetic rats
Method: The functional amyloid hydrogel encapsulated with insulin (5 mg/ml) was administered subcutaneously to the diabetic rat model. Blood samples were collected from the tail veins of rats prior to drug administration and at different time intervals after dosing. Diabetes model rats were fasted for 12 h prior to and remained fasted during the experiment, but were allowed water ad libitum. The blood glucose level was checked biochemically at regular interval. The insulin released from the hydrogel in vivo was also monitored. To do that, blood samples were centrifuged (10,000 rpm, 4° C. for 15 min) and subsequently quantified using an appropriate insulin ELISA kit and during various time intervals.

O=c1[nH]cc(F)c(=O)[nH]1 [5FU]
death in 3D (MCF7 spheroids [1]): more death in 3D as compared to other drugs

COc1cccc2c1C(=O)c1c(O)c3c(c(O)c1C2=O)C[C@@](O)(C(=O)CO)C[C@@H]3O[C@H]1C[C@H](N)[C@H](O)[C@H](C)O1 [DOX, doxorubicin]
change in cell viability (FACS, Annexin-PI) (MDA-MB-231 cells; DOX encapsulated in the hydrogels, 24 hrs): decrease in cell viability | cancer cell death (MDA-MB-231 cells; DOX released from DOX encapsulated hydrogels): ~70%

CC[C@H](C)[C@H](NC(=O)[C@H](CCC(=O)O)NC(=O)[C@H](CCSC)NC(=O)[C@H](CC(C)C)NC(=O)[C@H](CCCCN)NC(=O)OCC1c2ccccc2-c2ccccc21)C(=O)O [FA1, KLMEI] (Fmoc-KLMEI-OH; N-terminus and C-terminus assumed)
viability at 24 h, 5000 µg/mL [2]: > 80%

CC[C@H](C)[C@H](NC(=O)[C@H](CC(=O)O)NC(=O)[C@H](CC(C)C)NC(=O)[C@H](CC(C)C)NC(=O)[C@H](CCCCN)NC(=O)OCC1c2ccccc2-c2ccccc21)C(=O)O [FA2, KLLDI] (Fmoc-KLLDI-OH; N-terminus and C-terminus assumed)
viability at 24 h, 5000 µg/mL [2]: > 80%

CC(C)C[C@H](NC(=O)[C@@H](NC(=O)[C@@H](NC(=O)[C@H](C)NC(=O)OCC1c2ccccc2-c2ccccc21)C(C)C)C(C)C)C(=O)N[C@@H](CO)C(=O)O [FA3, AVVLS] (Fmoc-AVVLS-OH; N-terminus and C-terminus assumed)
viability at 24 h, 5000 µg/mL [2]: > 80%

CC1=C(/C=C/C(C)=C/C=C/C(C)=C/C(=O)O)C(C)(C)CCC1 [RA, trans-retinoic acid]
differentiation of cells (SH-SY5Y cells): induced differentiation of SH-SY5Y cells towards neuronal lineage

CC(=O)O[C@H]1C(=O)[C@@]2(C)[C@H]([C@H](OC(=O)c3ccccc3)[C@]3(O)C[C@H](OC(=O)[C@H](O)[C@@H](NC(=O)c4ccccc4)c4ccccc4)C(C)=C1C3(C)C)[C@]1(OC(C)=O)CO[C@@H]1C[C@@H]2O [paclitaxel]
cells dead in 2D (MCF7 spheroids [3]; 4 μM, calcein AM / ethidium homodimer-1): 70% | resistance 3D versus 2D (MCF7 spheroids [3]; 2-10 μM, spheroids 5 days on gel 4): 3D are more resistant than 2D

insulin
blood sugar level ([4]; insulin encapsulated in the hydrogels, subcutaneously injected): 100 to 120 mg/dL | time blood glucose level maintained after administration ([4]; only insulin control): ≤ 6 h | time serum insulin level maintained after administration ([4]; only insulin control): ≤ 6 h
